Here are results for 22 molecules from PubChem BioAssay AID652002 (Sanford-Burnham Center for Chemical Genomics, 2013).

Assay [1] is described as follows: TRAIL sensitizers in caspase-8 expressing neuroblastoma cells, dose response, NB7 cells plus caspase-8, luminescence, panel (AID 652002). Conditions: NB7 neuroblastoma +caspase-8, no TRAIL, compound-alone cytotoxicity counter-screen, luminescence viability, NB7+Caspase-8. (In general: The purpose of a counterscreen is to sort out artefacts and off-target activity.)

Assay [2] has as its target NB7+Caspase-8. Described as above. Conditions: NB7 neuroblastoma +caspase-8, TRAIL sensitization, luminescence viability, with TRAIL.
Assay [3] deals with Tumor necrosis factor receptor superfamily member 10B (Homo sapiens) (UniProt O14763). The assay is described as above. Conditions: NB7 neuroblastoma +caspase-8, TRAIL sensitization, luminescence viability; NB7+Caspase-8; with TRAIL, mean of runs.
Tumor necrosis factor receptor superfamily member 10B (Homo sapiens), sequence (O14763 whole entry, looked up): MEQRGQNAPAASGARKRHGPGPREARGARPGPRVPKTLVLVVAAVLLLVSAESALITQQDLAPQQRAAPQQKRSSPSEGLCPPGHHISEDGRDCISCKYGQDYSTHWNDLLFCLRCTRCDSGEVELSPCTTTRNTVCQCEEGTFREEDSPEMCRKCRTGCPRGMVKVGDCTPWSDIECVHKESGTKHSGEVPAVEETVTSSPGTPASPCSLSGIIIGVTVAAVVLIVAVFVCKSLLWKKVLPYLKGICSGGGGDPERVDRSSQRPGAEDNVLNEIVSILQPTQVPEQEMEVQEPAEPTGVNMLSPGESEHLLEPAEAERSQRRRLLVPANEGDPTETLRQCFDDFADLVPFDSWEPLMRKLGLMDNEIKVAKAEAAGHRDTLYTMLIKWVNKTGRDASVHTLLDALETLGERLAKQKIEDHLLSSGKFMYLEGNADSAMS
Where [4] appears, read: run 1, single replicate panel EC50.
Setting [5] is: run 2, single replicate panel EC50.

Calls of active or inactive are those of the source. The rule behind the calls is not given here.

Turning to `Cc1ccc2c(c1)-c1nc3ccccc3cc1C2=NC1CCCCC1`, the EC50 in assay [1] (mean of runs) was > 12.5 µM (inactive); in assay [1] (setting [4]) it was more than 12.5 µM; in assay [1] (setting [5]), more than 12.5 µM; in assay [2] (setting [4]), more than 12.5 µM; in assay [2] (setting [5]) it was 7.45 µM. For the same molecule, the EC50 result in assay [3] was “inactive”.
As to `CCCC1(CCC)C(=O)NC(=NCc2ccccc2)NC1=O`, the EC50 in assay [1] (mean of runs) was > 12.5 µM (inactive); in assay [1] (setting [4]) it was more than 12.5 µM; in assay [1] (setting [5]), more than 12.5 µM; in assay [2] (setting [4]), more than 12.5 µM; in assay [2] (setting [5]) it was more than 12.5 µM; in assay [3], > 12.5 µM (inactive).
As to `CCSc1ccc(-c2ccc(C)cc2)nn1`, the EC50 result in assay [1] (mean of runs) and in assay [3] was “inactive” each time. Further, the EC50 in assay [1] (setting [4]) is more than 12.5 µM; in assay [1] (setting [5]) it was 8.12 µM; in assay [2] (setting [4]), more than 12.5 µM; in assay [2] (setting [5]), 7.07 µM.
As to `Cc1ccc(NC(=O)c2ccccc2O)cc1`, the EC50 entry in assay [1] (mean of runs) and in assay [3] was “inactive” each time. In addition, the EC50 is 11.1 µM in assay [1] (setting [4]), 7.77 µM in assay [1] (setting [5]), more than 12.5 µM in assay [2] (setting [4]) and 10.5 µM in assay [2] (setting [5]).
Take `CCN(CC)S(=O)(=O)c1ccc(C(=O)OCC(=O)Nc2ccc(-c3nc4ccc(C)cc4s3)cc2)cc1`: the EC50 in assay [1] (mean of runs) is > 12.5 µM (inactive); in assay [1] (setting [4]) it was more than 12.5 µM; in assay [1] (setting [5]), more than 12.5 µM; in assay [2] (setting [4]), more than 12.5 µM; in assay [2] (setting [5]), more than 12.5 µM; in assay [3] it was > 12.5 µM (inactive).
On to `CN(C)CCCN(C(=O)c1ccc(S(=O)(=O)N2CCCc3ccccc32)cc1)c1nc2ccc(F)cc2s1`, for which the EC50 is > 12.5 µM (inactive) in assay [1] (mean of runs); more than 12.5 µM in assay [1] (setting [4]); more than 12.5 µM in assay [1] (setting [5]); more than 12.5 µM in assay [2] (setting [4]); more than 12.5 µM in assay [2] (setting [5]); > 12.5 µM (inactive) in assay [3].
With `C(=C\c1ccco1)/c1nc2ccccc2[nH]1`, the EC50 in assay [1] (mean of runs) was > 12.5 µM (inactive); in assay [1] (setting [4]), more than 12.5 µM; in assay [1] (setting [5]) it was more than 12.5 µM; in assay [2] (setting [4]) it was more than 12.5 µM; in assay [2] (setting [5]), more than 12.5 µM; in assay [3], > 12.5 µM (inactive).
As for `Cc1ccc(NC(=O)CSc2nc3ccc(Nc4nc(N5CCOCC5)nc(N5CCOCC5)n4)cc3s2)cc1`, the EC50 in assay [1] (mean of runs) is > 12.5 µM (inactive); in assay [1] (setting [4]), more than 12.5 µM; in assay [1] (setting [5]) it was more than 12.5 µM; in assay [2] (setting [4]) it was more than 12.5 µM; in assay [2] (setting [5]), more than 12.5 µM; in assay [3] it was > 12.5 µM (inactive).
With `Cc1nc(Cl)c2oc3ccccc3c2n1`, the EC50 was > 12.5 µM (inactive) in assay [1] (mean of runs); more than 12.5 µM in assay [1] (setting [4]); more than 12.5 µM in assay [1] (setting [5]); more than 12.5 µM in assay [2] (setting [4]); more than 12.5 µM in assay [2] (setting [5]); > 12.5 µM (inactive) in assay [3].
Turning to `CCCCC1CCC(C(=O)N(CCC(C)C)c2c(N)n(CCCC)c(=O)[nH]c2=O)CC1` (configuration not stated), the EC50 was > 12.5 µM (inactive) in assay [1] (mean of runs); more than 12.5 µM in assay [1] (setting [4]); more than 12.5 µM in assay [1] (setting [5]); more than 12.5 µM in assay [2] (setting [4]); more than 12.5 µM in assay [2] (setting [5]); > 12.5 µM (inactive) in assay [3].
Consider `O=C1c2ccc3c4c(ccc(c24)C(=O)N1c1cccc(O)c1)C(=O)N(c1cccc(O)c1)C3=O`, for which the EC50 in assay [1] (mean of runs) is > 12.5 µM (inactive); in assay [1] (setting [4]) it was more than 12.5 µM; in assay [1] (setting [5]), more than 12.5 µM; in assay [2] (setting [4]) it was 2.35 µM; in assay [2] (setting [5]), 12.4 µM. In assay [3], the EC50 result is “inactive”.
For `CCOC(=O)[C@]12Cc3cc4ccccc4cc3[C@H]1N(Cc1ccccc1)C(=O)c1ccccc12`, the EC50 in assay [1] (mean of runs) was > 12.5 µM (inactive); in assay [1] (setting [4]), more than 12.5 µM; in assay [1] (setting [5]) it was more than 12.5 µM; in assay [2] (setting [4]), more than 12.5 µM; in assay [2] (setting [5]), more than 12.5 µM; in assay [3], > 12.5 µM (inactive).
For `Cc1ccc(S(=O)(=O)Nc2ccccc2C(=O)Nc2nc(-c3ccc(F)cc3)cs2)cc1`, the EC50 entry in assay [1] (mean of runs) and in assay [3] was “inactive” throughout. Moreover, the EC50 in assay [1] (setting [4]) is more than 12.5 µM; in assay [1] (setting [5]) it was 8.36 µM; in assay [2] (setting [4]), more than 12.5 µM; in assay [2] (setting [5]), 9.9 µM.
On to `NNC(=O)C1CCCn2c1nc1sc3c(c1c2=O)CCCC3` (configuration not stated), for which the EC50 is > 12.5 µM (inactive) in assay [1] (mean of runs); more than 12.5 µM in assay [1] (setting [4]); more than 12.5 µM in assay [1] (setting [5]); more than 12.5 µM in assay [2] (setting [4]); more than 12.5 µM in assay [2] (setting [5]); > 12.5 µM (inactive) in assay [3].
As for `CC(C)(C)OC(=O)[C@H](Cc1ccccc1)NC(=O)c1[nH]cnc1C(=O)Nc1ccccc1F`, the EC50 in assay [1] (mean of runs) is > 12.5 µM (inactive); in assay [1] (setting [4]), more than 12.5 µM; in assay [1] (setting [5]) it was more than 12.5 µM; in assay [2] (setting [4]), more than 12.5 µM; in assay [2] (setting [5]), more than 12.5 µM; in assay [3], > 12.5 µM (inactive).
For the molecule `C=Cc1ccc(Cn2c(C)c(C(=O)NCc3cccc(C(F)(F)F)c3)sc2=O)cc1`, the EC50 is > 12.5 µM (inactive) in assay [1] (mean of runs); more than 12.5 µM in assay [1] (setting [4]); more than 12.5 µM in assay [1] (setting [5]); more than 12.5 µM in assay [2] (setting [4]); more than 12.5 µM in assay [2] (setting [5]); > 12.5 µM (inactive) in assay [3].
In the case of `Cc1cc2nc(-c3ccc(SCC(=O)Nc4nccs4)nc3)[nH]c2cc1C`, the EC50 is > 12.5 µM (inactive) in assay [1] (mean of runs); more than 12.5 µM in assay [1] (setting [4]); more than 12.5 µM in assay [1] (setting [5]); 5.16 µM in assay [2] (setting [4]); more than 12.5 µM in assay [2] (setting [5]). In addition, in assay [3], the EC50 result was “inactive”.
In the case of `CN(C)CCCN(C(=O)c1ccc(C(=O)c2ccccc2)cc1)c1nc2ccc(F)cc2s1`, the EC50 in assay [1] (mean of runs) was > 12.5 µM (inactive); in assay [1] (setting [4]), more than 12.5 µM; in assay [1] (setting [5]) it was more than 12.5 µM; in assay [2] (setting [4]) it was more than 12.5 µM; in assay [2] (setting [5]), more than 12.5 µM; in assay [3], > 12.5 µM (inactive).
As for `O=C1Cc2c(-c3ccccc3)cc(-c3cccc(Cl)c3)nc2-c2ccccc2N1`, the EC50 in assay [1] (mean of runs) was > 12.5 µM (inactive); in assay [1] (setting [4]), more than 12.5 µM; in assay [1] (setting [5]), more than 12.5 µM; in assay [2] (setting [4]), more than 12.5 µM; in assay [2] (setting [5]), more than 12.5 µM; in assay [3], > 12.5 µM (inactive).
Consider `CC(C)CCn1cnc2c([nH]c3cccc(Cl)c32)c1=O`, for which the EC50 in assay [1] (mean of runs) was > 12.5 µM (inactive); in assay [1] (setting [4]), more than 12.5 µM; in assay [1] (setting [5]), more than 12.5 µM; in assay [2] (setting [4]), more than 12.5 µM; in assay [2] (setting [5]), more than 12.5 µM; in assay [3] it was > 12.5 µM (inactive).
`CCN(CC)c1ccc(/C=N/NC(=O)c2ccco2)cc1`: the EC50 in assay [1] (mean of runs) was > 12.5 µM (inactive); in assay [1] (setting [4]), more than 12.5 µM; in assay [1] (setting [5]), more than 12.5 µM; in assay [2] (setting [4]), more than 12.5 µM; in assay [2] (setting [5]), more than 12.5 µM; in assay [3] it was > 12.5 µM (inactive).
For `CSc1nc(N)n2nc(-c3ccc(Cl)cc3)cc2n1`, the EC50 in assay [1] (mean of runs) was > 12.5 µM (inactive); in assay [1] (setting [4]), more than 12.5 µM; in assay [1] (setting [5]), more than 12.5 µM; in assay [2] (setting [4]), more than 12.5 µM; in assay [2] (setting [5]), more than 12.5 µM; in assay [3], > 12.5 µM (inactive).

By EC50 is commonly meant the concentration that produces a half-maximal response.
